Data from patent publication US12685733B2, “Indole molecules and use thereof in the inhibition of DNA polymerases” (BioVentures, LLC, priority 2019, dated 2026).

Legend:
[1] = test system: hpol κ-proficient HAP-1 cells; experiment: Alkaline comet assay; type: cell-based, human
Method: (§1) To evaluate DNA damage upon treatment with TMZ and the compound IAG-10, the alkaline comet assay was performed using protocol as described by the manufacturer (Trevigen, Gaithersburg, MD). Briefly, 100 000 HAP-1 cells per well for both the hpol κ-proficient and hpol κ-deficient cell types were plated in a 12-well dish. Both types of cells were treated with 0.5 μM of IAG-10 alone or in combination with TMZ (100 μM) for 1 h. Cells treated with DMSO served as the control. Following treatment, cells were harvested, washed in ice-cold Ix PBS, and counted. The cells were then suspended in low-melting agarose to a final dilution of 200-300 cells per well on the comet slide. The comet slides with wells coated with cell/agarose mixture were incubated at 4° C. in the dark to allow the agarose to solidify before immersing the slides in proprietary lysis solution for 1 h. Each comet slide was then immersed in an alkaline unwinding solution (200 mM NaOH, 1 mM EDTA) for 20 min at RT before placing them in the electrophoresis unit in […] of the same solution. Samples were electrophoresed at 21 V for 30 min at 4° C. The comet slides were washed and dried completely at 37° C. before staining with SYBR Gold diluted in TE buffer (10 mM Tris-HCl, pH 7.5, 1 mM EDTA). The comets were visualized using an EVOS FL Auto microscope (Life Technologies, Carlsbad, CA) set at 10× magnification and were scored using CometScore software. All experiments were repeated in 3 biological replicates with at least 60 comets scored for each condition. Results were plotted using Graphpad Prism, as the percent of DNA in the tail of each comet, and statistical significance between treatment conditions was calculated using one-way ANOVA with the Bonferroni posthoc correction.

[2] = test system: hpol κ-deficient HAP-1 cells; experiment: Alkaline comet assay; type: cell-based, human
Method: as §1

[3] = target: T1, hRev1 (Homo sapiens, UniProt Q9UBZ9); experiment: Gel-based primer extension assay; type: biochemical; conditions: 10 μM; 10 nM Rev1
T1 construct: hRevl (residues 330-833); made in house
T1 sequence (Q9UBZ9 330-833): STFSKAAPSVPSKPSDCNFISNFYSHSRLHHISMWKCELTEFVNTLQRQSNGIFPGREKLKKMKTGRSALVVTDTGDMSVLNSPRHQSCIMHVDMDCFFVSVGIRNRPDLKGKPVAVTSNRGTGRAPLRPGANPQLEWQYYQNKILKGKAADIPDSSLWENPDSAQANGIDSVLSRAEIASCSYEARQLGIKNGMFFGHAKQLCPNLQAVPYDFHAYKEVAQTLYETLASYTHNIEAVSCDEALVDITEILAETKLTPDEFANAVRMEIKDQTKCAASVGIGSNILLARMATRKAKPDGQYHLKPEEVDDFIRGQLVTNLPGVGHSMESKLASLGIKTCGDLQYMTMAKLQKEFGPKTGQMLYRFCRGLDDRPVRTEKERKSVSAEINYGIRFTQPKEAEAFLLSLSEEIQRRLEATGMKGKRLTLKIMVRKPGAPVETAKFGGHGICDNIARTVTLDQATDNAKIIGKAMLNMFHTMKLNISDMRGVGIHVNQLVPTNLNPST

[4] = test system: T98G cells; experiment: Clonogenic survival assay; type: cell-based, human
[5] = test system: hpol κ-proficient HAP-1 cells; experiment: supF mutagenesis assay; conditions: 1 μM IAG-10, 24 h
Method: HAP-1 hpol κ-proficient and hpol κ-deficient cells were cultured in 10 cm dishes to ~80% confluency in Iscove's modified Dulbecco's medium (Invitrogen) containing 10% (v/v) FBS supplemented with Ix antibiotic antimycotic solution (Sigma). They were transfected with unmodified (control) and methylmethanesulfonate (MMS)-modified pSP189 plasmid harboring the supF gene either in the absence or presence of 1 μM IAG-10. For plasmid modification with MMS, the pSP189 plasmid was first incubated with 100 mM MMS in 10 mM HEPES buffer (pH 7.5) containing 50 mM KCl, 5 mM MgCl2, and 1 mM dithiothreitol at RT for 1 h. The MMS-modified plasmid was then purified by ethanol precipitation and used in subsequent transfections, similar to the unmodified plasmid. […] The recovered plasmids (75-100 ng) were then transformed into E. coli MBM7070 strain by electroporation, and the transformed bacterial cells were plated on LB-agar plates containing 100 μg/mL ampicillin, 1 mM isopropyl-I-thio-fi-Dgalactopyranoside (IPTG) and 100 μg/mL X-gaL The resulting blue (nonmutated) and white (mutated) colonies were counted. The mutation frequency was calculated as the ratio of mutant (white) colonies to total (blue+white) colonies. At least 10 000 colonies were counted for each condition, and the results reported represent the mean (±SD) of experiments performed in biological triplicate.

[6] = test system: hpol κ-proficient HAP-1 cells; experiment: Clonogenic survival assay; type: cell-based, human
Method: (§2) HAP-1 and hpol κ^KO cells were purchased from Horizons Discovery Group LLC (Cambridge, UK). The company generated the Hap1 cells using CRISPR-Cas9 technology and the elimination of kappa expression was confirmed by Sanger sequence genome editing. We further confirmed the elimination of hpol κ protein expression by Western blotting (data not shown). Hap1 cells were cultured in Iscove's modified Dulbecco's medium (IMDM; Invitrogen, CA, USA) supplemented with 10% (v/v) fetal bovine serum (FBS; Atlas Biologicals, CO, USA) and 1% (v/v) antibiotic/antimycotic solution (Sigma-Aldrich, MO, USA).T98G cells were purchased from ATCC (American Type Culture Collection, VA, USA). T98G cells were cultured in MEM (Minimum Essential Medium) (Invitrogen, CA, USA) supplemented with 10% (v/v) FBS (Fetal Bovine Serum, Atlas Biologicals, CO, USA) and antibiotic/antimycotic solution (1%, v/v) (Sigma-Aldrich, MO, USA). NT2 cells were kindly provided by Dr. Michael Borrelli (University of Arkansas for Medical Sciences, AR, USA). NT2 cells were cultured in DMEM/F12 (Dulbecco's Modified Eagle Medium) supplemented with 10% (v/v) FCS (Fetal Calf Serum) and antibiotic/antimycotic solution (1%) (Sigma-Aldrich, MO, USA).
(§3) To measure the clonogenic ability, cells were plated (500 cells per well) in 6-well dishes. In the case of HAP-1 cells, cells were treated the following day after plating, with temozolomide (TMZ) (0, 1, 5, 50, 125 and 250 μM) alone or in combination with UAMS-48 (0.1 and 0.5 μM) for 1 hour. In the case of T98G and NT2 cells, treatment was done on the following day of plating, with increasing concentrations of TMZ alone or in combination with UAMS-48 (50 nM) for 3 hrs. T98G and NT2 cells were treated with increasing concentrations of UAMS-48 for 3 hrs. After treatment, cells were cultured in fresh IMDM supplemented with 10% FBS for 10 days. The colonies were gently washed with 1×PBS, fixed with 3.7% (v/v) formaldehyde for 20 mins at RT and stained with crystal violet solution (Sigma-Aldrich, MO, USA) for 30 mins at RT.
(§4) The fixed crystal-violet stained colonies in each 6-well plate were examined under an EVOS XL Core imaging system (Thermo Fisher Scientific) under bright-field, and the colonies were inspected manually. […] Color images of each 6-well plate were captured and opened for processing using the Fiji version of the freely available software ImageJ. Setting the appropriate threshold for counting colonies for each cell type, corresponding to the respective radii calculated previously, the colonies were counted using the Colony Area plugin of ImageJ. Manual counting was performed on a few wells picked randomly, and the colony count so obtained was tallied with the number obtained using ImageJ, to ensure they matched reasonably. All experiments were performed in triplicate, and the colony number for each well was expressed as the mean (±standard deviation). The results were plotted to generate a dose response curve for TMZ treatment using the software Graphpad Prism, where the mean number of colonies was plotted along the Y-axis, and the TMZ concentration along the X-axis. Bar charts comparing the mean number of colonies as a function of the various conditions were also plotted for both cell types. Combination index values were calculated using the Chou-Talalay method (Chou 2010).

[7] = test system: hpol κ-deficient HAP-1 cells; experiment: Clonogenic survival assay; type: cell-based, human
Method: as §2, §3, §4

[8] = 100 μM TMZ + 0.5 μM IAG-10, 1 h
[9] = single agent, 1 h: 0.5 μM IAG-10 or 100 μM TMZ

Cl.[H]/N=C(\N)NN=Cc1cn(C(=O)c2cccc3ccccc23)c2ccc(Cl)cc12 [IAG-10, (E)-2-((1-(1-naphthoyl)-5-chloro-1H-indol-3-y1)methylene)hydrazine-1-carboximidamide hydrochloride]
DNA damage (percent DNA in the tail), combination [1, 8]: increased even further | DNA damage (percent DNA in the tail) compared to control [1, 9]: approximately twofold | DNA damage (percent DNA in the tail), combination [2, 8]: did not increase further | DNA damage (percent DNA in the tail) compared to control [2, 9]: did not increase DNA damage over control | polymerase activity relative to DMSO control [3]: only hpol κ was inhibited | combination index (TMZ and IAG-10, Chou-Talalay) ([4]; IAG-10 50 nM + TMZ): 0.09 | decrease of cell proliferation (clonogenic) compared to TMZ alone ([4]; IAG-10 50 nM along with TMZ, 3 hrs): ~ 10 fold | decrease in GBM-derived cell proliferation compared to NT2 cells ([4]; IAG-10 alone, concentrations above that used for combination): ~ 2 fold | mutation frequency for the undamaged plasmid [5]: did not change the mutation frequency | mutation frequency for MMS-damaged DNA over the undamaged control plasmid ([5]; MMS-damaged pSP189): approximately twofold | colony formation, compound alone ([6]; 0.5 μM IAG-10): does not impair colony formation | colonies formed relative to untreated cells ([6]; 250 μM TMZ + 0.5 μM IAG-10 co-treatment, 1 hour): ~ 40% | colony formation, compound alone ([7]; 0.5 μM IAG-10): does not impair colony formation | colony forming ability, co-treatment over TMZ alone ([7]; TMZ + 0.5 μM IAG-10): did not show any significant reduction in colony forming ability
